# From US20060088573A1, “Composition having action preventing or alleviating symtoms or diseases due to aging of blood vessels” (Suntory Limited, priority 2003, published 2006)
# Tested on: thoracic arteries of old rats
# Assay: Acetylcholine blood vessel relaxation reaction test on thoracic artery rings after 3 months of diet
# Format: in vivo, rat
# Excerpt: The effect of triglyceride (arachidonic acid-containing oil (SUNTGA40S)) having arachidonic acid as a component fatty acid prepared in Reference Example 1 on the acetylcholine blood vessel relaxation reaction was investigated using rats. As the test groups of old rats, 15 19-month old male Fischer rats were divided into a control diet group (8 rats: OC group) and a SUNTGA40S compound diet group (7 rats: OA group).
# The amount of intake of rats was about 20 g and the daily intake of SUNTGA40S per rat was 100 mg. Of the total fatty acids bonded with the arachidonic acid-containing oil (SUNTGA40S) prepared in Reference Example 1, 40% is arachidonic acid, so the daily intake of arachidonic acid per rat became 40 mg. This 40 mg corresponds to 133 mg/60 kg/day converted to human intake.
# In the third month of raising (in the case of old rats, 22-month age and in the case of young rats, four-month age), the thoracic arteries were excised. Part was used for the in vitro blood vessel relaxation reaction test, while the remaining blood vessels were used for analysis of the fatty acid composition. […]
structure (smiles),measurement,setting,value
"CCCCC/C=C\C/C=C\C/C=C\C/C=C\CCCC(=O)OC(COC(=O)CCCCCCC)COC(=O)CCCCCCC [8A8, 1,3-capryloyl-2-arachidonoyl-glycerol]",average blood vessel relaxation rate by acetylcholine 10^-7M,"old male Fischer rats (22-month age), 8A8 diet 3 months (40 mg arachidonic acid/rat/day), old control diet 52.3%, young control diet 80.5%",62.7%
same,blood vessel relaxation response,"old rats, 8A8 diet 3 months, vs old rats on control diet",improved
